Data on one compound can be found in US7462635B2, “Thiazole and oxazole VDAC regulator” (Takeda Pharmaceutical Company Limited, priority 2002, dated 2008).

The subject of test [1] is PC12 cells. The test can be described thus: Mitochondria respiration activity-increasing action using Alamar Blue. The class given is cell-based. Conditions: FCS-free DMEM, 3 μmol/L, 3 hours, B-27 addition group = 100%, non-addition group 73.2%±1.9%, mean±standard deviation, n=7. On the procedure: The mitochondria respiration activity-increasing action of Compound (5) was evaluated using Alamar Blue.
After PC12 cells, pre-cultured in a DMEM containing 10% fetal calf serum (FCS), were suspended in the same medium to obtain a concentration of 2×10^5 cells/mL, the obtained suspension was sown to a 96-well culture plate to obtain a concentration of 0.1 mL/well and cultured for 24 hours. After said culture plate was washed with DMEM, a solution obtained by diluting Compound (5) in FCS-free DMEM to obtain a concentration of 3 μmol/L was added, and cultivation was carried out for 3 hours [Compound (5) addition group]. […]
Subsequently, to each well of the culture plate, 10 μL of Alamar Blue solution (Alamar Biosciences), which is a mitochondria respiration activity indicator, was added; fluorescence just after the addition and after the plate was allowed to stand in a 5% CO2 incubator at 37° C. for 10 minutes was determined using a Fluoroscan (Flow Laboratories) [excitation wavelength (Ex.): 538 nm, emission wavelength (Em.): 590 nm], and its variation was obtained.
Furthermore, taking the fluorescence variation in the B-27 addition group as 100%, relative values of fluorescence variation in the Compound (5) addition group and the Compound (5) non-addition group were calculated.

Test [2] has as its target T1, voltage-dependent anion channel (VDAC)-1 (Homo sapiens, UniProt P21796).
T1 construct: protein was extracted from the nuclear fraction of human neuroblastoma SK-N-SH (ATCC); endogenous in cells; host or cells: SK-N-SH human neuroblastoma cells (ATCC)
As to the kind of experiment: Identification of Compound (5)-binding protein: elution from Compound A-immobilized latex particles, SDS-PAGE, TOF-MS, immunoblotting. The note with it: SK-N-SH nuclear fraction protein; elution with 300 μM Compound (5), 4° C., 1.5 hours; silver staining. The procedure: (§1) After 5 mg of carboxyl group-type latex particles obtained in Reference Example 1 was dispersed in dioxane, 23 mg of N-hydroxysuccinimide and 38 mg of water-soluble carbodiimide were added, and they were reacted at room temperature (about 20 to 25° C., the same applies below) for 2 hours. After the obtained succinimide-immobilized particles were washed with methanol, they were reacted with 4 mM Compound A (amino derivative of Compound (5)) in 0.5 mL of 0.2M sodium acetate buffer solution (pH 5.3) at room temperature for 1 hour to thereby immobilize Compound A onto the particles. To the obtained particles, 1M aqueous solution of ethanolamine-hydrochloric acid (pH 8.5) was added, and they were reacted at room temperature or 2 hours to thereby block unreacted groups in the succinimide-immobilized particles, after which the particles were washed with 50% methanol and water to give Compound A-immobilized particles. The Compound A-immobilized particles were dispersed in water to obtain a concentration of 10 mg/mL and stored under refrigeration. […]
(§2) Subsequently, centrifugation (15, 000×g, 5 minutes) was carried out, the supernatant was removed, and the obtained particles were washed with 0.05TGEMN buffer. […] After centrifugation (15, 000×g, 5 minutes), the protein-containing supernatant was analyzed by SDS-PAGE. […]

In test [3] the test system is PC12 cells. As to the kind of experiment: Mitochondria membrane potential-stabilizing action using Rodamin 123. The class given is cell-based. Conditions: FCS-free DMEM, 3 μmol/L, 4 hours, FCS addition group = 100%, non-addition group 131.2±12.9%, mean±standard deviation, n=8. The procedure:
The mitochondria membrane potential-stabilizing action of Compound (5) was evaluated using Rodamin 123 (trade name, Molecular Probe).
After PC12 cells, pre-cultured in a DMEM containing 10% fetal calf serum (FCS), were suspended in the same medium to obtain a concentration of 2×10^5 cells/mL, the obtained suspension was sown to a 96-well culture plate to obtain a concentration of 0.1 mL/well and cultured for 24 hours. After said culture-plate was washed with DMEM, a solution obtained by diluting Compound (5) in FCS-free DMEM to obtain a concentration of 3 μmol/L was added, and cultivation was carried out for 4 hours [Compound (5) addition group]. […]
Subsequently, to each well of the culture plate, Rodamin 123 (trade name, Molecular Probe), which is a mitochondria membrane potential indicator, was added to obtain a concentration of 1 μmol/L; fluorescence just after the addition and after the plate was allowed to stand in a 5% CO2 incubator at 37° C. for 10 minutes was determined using a Fluoroscan (Flow Laboratories) [excitation wavelength (Ex.): 485 nm, emission wavelength (Em.): 538 nm], and its variation was obtained.
Furthermore, taking the fluorescence variation in the FCS addition group as 100%, relative values of fluorescence variation in the Compound (5) addition group and the Compound (5) non-addition group were calculated.

Test [4] has as its system PC12 cells. The test can be described thus: Cytochrome c leakage suppressing action (cytochrome c ELISA of cytoplasmic protein). Conditions: DMEM with 0.5% FCS, 0.3 μmol/L Compound (5), 16 hours, 0.5% FCS group without compound 19.4. The class given is cell-based. On the procedure: The effect of Compound (5) on VDAC function was evaluated by determining the amount of cytochrome c leakage in the cytoplasm of PC12 cells.
PC12 cells, pre-cultured in a DMEM (Dulbecco's Modified Eagle's Medium) containing 10% FCS (Fetal Calf Serum), were sown to a culture dish of 10 cm diameter (Falcon) and cultured until they became nearly confluent. After the culture dish was washed with DMEM, a DMEM containing 0.5% FCS (0.5% FCS group) or a DMEM containing 0.5% FCS and 0.3 μmol/L Compound (5) (0.5% FCS+Compound (5) group) was added, and the cells were further cultured for 16 hours. The cells suspended in the culture broth and the cells adhering to the culture dish, detached by trypsin-EDTA treatment, were recovered. The recovered cells, after being washed with PBS, were ice-cooled in a digitonin solution [10 mmol/L HEPES, 0.3 mol/L mannitol, 0.1% (w/v) BSA, 100 μmol/L digitonin] (100 μL) for 5 minutes to extract cytoplasmic protein. After the obtained cytoplasmic protein was centrifuged at 8500×g for 5 minutes, 12 μL of the supernatant was analyzed using an assay kit [cytochrome c ELISA kit (MBL) and […] (Pierce), respectively] to determine its cytochrome c content and protein content. Subsequently, the cytochrome c content per unit amount of total protein was calculated, and this was taken as the amount of cytochrome c leakage (ng/mg). The results are shown in [Table 1].

Test [5] deals with T2, VDAC-3 (Homo sapiens, UniProt Q9Y277).
T2 construct: protein was extracted from the nuclear fraction of human neuroblastoma SK-N-SH (ATCC); endogenous in cells; host or cells: SK-N-SH human neuroblastoma cells (ATCC)
T2 sequence (Q9Y277 1-283): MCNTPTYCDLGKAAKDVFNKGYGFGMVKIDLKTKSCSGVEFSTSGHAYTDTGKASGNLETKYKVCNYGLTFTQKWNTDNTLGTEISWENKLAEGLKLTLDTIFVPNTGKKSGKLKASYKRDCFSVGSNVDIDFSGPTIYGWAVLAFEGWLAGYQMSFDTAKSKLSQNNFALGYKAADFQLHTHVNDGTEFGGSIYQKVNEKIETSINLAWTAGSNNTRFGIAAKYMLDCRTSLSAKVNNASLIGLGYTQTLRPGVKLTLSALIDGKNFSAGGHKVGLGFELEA
As to the kind of experiment: Identification of Compound (5)-binding protein: elution from Compound A-immobilized latex particles, SDS-PAGE, TOF-MS. Conditions: SK-N-SH nuclear fraction protein; elution with 300 μM Compound (5), 4° C., 1.5 hours; silver staining. On the procedure:
as §1, §2

In test [6] the test system is PC12 cells. As to the kind of experiment: Apoptosis-suppressing action: nucleosome content (Cell Death Detection ELISA), low serum-induced apoptosis. The class given is cell-based. Conditions: DMEM with 0.5% FCS, 0.3 μmol/L Compound (5), 24 hours, 10% FCS group = 100%, 0.5% FCS group 422. The procedure: The apoptosis-suppressing action of Compound (5) was evaluated by determining the nucleosome content in PC12 cells.
PC12 cells, pre-cultured in a DMEM containing 10% FCS, were sown to a 24-well culture plate to obtain a concentration of 6×10^4 cells/well, and cultured for 24 hours. After the culture plate was washed with DMEM, a DMEM containing 0.5% FCS (0.5% FCS group) or a DMEM containing 0.5% FCS and 0.3 μmol/L Compound (5) (0.5% FCS+Compound (5) group) was added, and the cells were further cultured for 24 hours. Also, as a control group, the same procedures were carried out using a DMEM containing 10% FCS (10% FCS group). The cells suspended in the culture broth and the cells adhering to the culture plate, detached by trypsin-EDTA treatment, were recovered. According to the protocol of an apoptosis assay kit with nucleosome detection as an index (Cell Death Detection ELISA, Roche), the recovered cells were suspended in 500 μL of the cytolytic solution attached to said assay kit. After the suspension was ice-cooled for 30 minutes, it was centrifuged at 15, 000 rpm for 10 minutes and 400 μL of the supernatant was recovered. Said supernatant was diluted 2 fold and subjected to ELISA to determine its nucleosome content. Subsequently, taking the nucleosome content in the 10% FCS group as 100%, percentage in each group was calculated. The results are shown in [Table 2].

Each structure is given as a SMILES string.

T1 sequence (P21796 whole entry): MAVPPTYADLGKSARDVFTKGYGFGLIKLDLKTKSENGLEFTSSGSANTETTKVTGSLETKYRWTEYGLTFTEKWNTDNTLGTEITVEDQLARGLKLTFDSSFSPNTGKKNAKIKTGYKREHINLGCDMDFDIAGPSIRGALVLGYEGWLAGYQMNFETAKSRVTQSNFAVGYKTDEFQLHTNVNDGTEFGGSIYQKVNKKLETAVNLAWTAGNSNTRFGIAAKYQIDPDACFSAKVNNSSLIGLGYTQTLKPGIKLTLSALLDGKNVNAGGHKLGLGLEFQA

As to `Cc1ccccc1OCCCc1oc(-n2ccnc2C)nc1-c1ccc(Cl)cc1` [Compound (5), 4-(4-chlorophenyl)-2-(2-methyl-1-imidazolyl)-5-[3-(2-methylphenoxy)propyl]oxazole], the “fluorescence variation (Alamar Blue), relative value” in test [1] was 126.7%±15.7%. Besides, the “about 32 kDa protein band (VDAC-1) eluted from Compound A-immobilized particles” value in test [2] was “eluted selectively”. Also, the “fluorescence variation (Rodamin 123), relative value” in test [3] was 110.0%±8.0%. Moreover, the “Amount of cytochrome c leakage” value in test [4] is reported as 7.0 ng/mg. Moreover, the “about 30 kDa protein band (VDAC-3) eluted from Compound A-immobilized particles” value in test [5] is “eluted selectively”. Also, the Nucleosome content in test [6] is listed as 176%.
